In PubChem BioAssay AID1963970 (Molecular Pharmacology Branch, DTP, NCI, 2024):

Tested on: 931267-113-T-J1-PDC multicell spheroid viability
Test: Anticancer human tumor 931267-113-T-J1-PDC patient-derived colon adenocarcinoma cell line growth inhibition [PI3K]
Conditions: for IC50: curve of first compound; for viability, T/C: stronger effect = lower value; active = viability on the fitted dose curve at most 10% of control; inactive = the rest
In short: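 Multi-cell spheroids combine tumor cells with HUVEC and human MSCs, treated with targeted agents alone or with inavolisib, alpelisib, duvelisib or copanlisib. Concentrations fall in half-log steps from at or near clinical Cmax, or from 10 microM where Cmax is unknown; viability read-out.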

[1] = second compound 0.0316 µM, first compound 0.0316 µM
[2] = second compound 0.0316 µM, first compound 0.1 µM
[3] = second compound 0.0316 µM, first compound 0.316 µM
[4] = second compound 0.0316 µM, first compound 1 µM
[5] = second compound 0.0316 µM, first compound 3.16 µM
[6] = second compound 0.0316 µM, first compound 10 µM
[7] = second compound 0.1 µM, first compound 0.0316 µM
[8] = second compound 0.1 µM, first compound 0.1 µM
[9] = second compound 0.1 µM, first compound 0.316 µM
[10] = second compound 0.1 µM, first compound 1 µM
[11] = second compound 0.1 µM, first compound 3.16 µM
[12] = second compound 0.1 µM, first compound 10 µM
[13] = second compound 0.316 µM, first compound 0.0316 µM
[14] = second compound 0.316 µM, first compound 0.1 µM
[15] = second compound 0.316 µM, first compound 0.316 µM
[16] = second compound 0.316 µM, first compound 1 µM
[17] = second compound 0.316 µM, first compound 3.16 µM
[18] = second compound 0.316 µM, first compound 10 µM
[19] = second compound 1 µM, first compound 0.0316 µM
[20] = second compound 1 µM, first compound 0.1 µM
[21] = second compound 1 µM, first compound 0.316 µM
[22] = second compound 1 µM, first compound 1 µM
[23] = second compound 1 µM, first compound 3.16 µM
[24] = second compound 1 µM, first compound 10 µM
[25] = second compound 3.16 µM, first compound 0.0316 µM
[26] = second compound 3.16 µM, first compound 0.1 µM
[27] = second compound 3.16 µM, first compound 0.316 µM
[28] = second compound 3.16 µM, first compound 1 µM
[29] = second compound 3.16 µM, first compound 3.16 µM
[30] = second compound 3.16 µM, first compound 10 µM
[31] = second compound 10 µM, first compound 0.0316 µM
[32] = second compound 10 µM, first compound 0.1 µM
[33] = second compound 10 µM, first compound 0.316 µM
[34] = second compound 10 µM, first compound 1 µM
[35] = second compound 10 µM, first compound 3.16 µM
[36] = second compound 10 µM, first compound 10 µM
[37] = second compound 0.00316 µM, first compound 0.0316 µM
[38] = second compound 0.00316 µM, first compound 0.1 µM
[39] = second compound 0.00316 µM, first compound 0.316 µM
[40] = second compound 0.00316 µM, first compound 1 µM
[41] = second compound 0.00316 µM, first compound 3.16 µM
[42] = second compound 0.00316 µM, first compound 10 µM
[43] = second compound 0.01 µM, first compound 0.0316 µM
[44] = second compound 0.01 µM, first compound 0.1 µM
[45] = second compound 0.01 µM, first compound 0.316 µM
[46] = second compound 0.01 µM, first compound 1 µM
[47] = second compound 0.01 µM, first compound 3.16 µM
[48] = second compound 0.01 µM, first compound 10 µM
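Note: viability read 7 days after compound addition.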

C[C@@H](NC(=O)c1ncnc(N)c1Cl)c1ncc(C(=O)Nc2cc(C(F)(F)F)c(Cl)cn2)s1 + CC(Nc1ncnc2nc[nH]c12)c1cc2cccc(Cl)c2c(=O)n1-c1ccccc1
> 10 µM: IC50 (second compound 0.0316 µM) | IC50 (second compound 0.1 µM) | IC50 (second compound 0.316 µM) | IC50 (second compound 1 µM) | IC50 (second compound 3.16 µM) | IC50 (second compound 10 µM)
inactive: viability, T/C [1] 107% | viability, T/C [2] 117% | viability, T/C [3] 117% | viability, T/C [4] 104% | viability, T/C [5] 92.7% | viability, T/C [6] 74.5% | viability, T/C [7] 121% | viability, T/C [8] 107% | viability, T/C [9] 110% | viability, T/C [10] 111% | viability, T/C [11] 98.9% | viability, T/C [12] 78.1% | viability, T/C [13] 113% | viability, T/C [14] 116% | viability, T/C [15] 104% | viability, T/C [16] 110% | viability, T/C [17] 103% | viability, T/C [18] 75.1% | viability, T/C [19] 115% | viability, T/C [20] 114% | viability, T/C [21] 105% | viability, T/C [22] 110% | viability, T/C [23] 107% | viability, T/C [24] 69.4% | viability, T/C [25] 98.5% | viability, T/C [26] 108% | viability, T/C [27] 103% | viability, T/C [28] 95.8% | viability, T/C [29] 98.2% | viability, T/C [30] 66.5% | viability, T/C [31] 96.4% | viability, T/C [32] 107% | viability, T/C [33] 99.8% | viability, T/C [34] 106% | viability, T/C [35] 86% | viability, T/C [36] 53.2%

C=CC(=O)N1CCN(c2nc(=O)n(-c3c(C)ccnc3C(C)C)c3nc(-c4c(O)cccc4F)c(F)cc23)C(C)C1 (stereo not drawn) + CC(Nc1ccc2c(c1)OCCn1cc(N3C(=O)OCC3C(F)F)nc1-2)C(N)=O
> 10 µM: IC50 (second compound 0.00316 µM) | IC50 (second compound 0.01 µM) | IC50 (second compound 0.0316 µM) | IC50 (second compound 0.1 µM) | IC50 (second compound 0.316 µM) | IC50 (second compound 1 µM)
inactive: viability, T/C [37] 108% | viability, T/C [38] 106% | viability, T/C [39] 100% | viability, T/C [40] 114% | viability, T/C [41] 115% | viability, T/C [42] 107% | viability, T/C [43] 94.8% | viability, T/C [44] 98% | viability, T/C [45] 117% | viability, T/C [46] 118% | viability, T/C [47] 110% | viability, T/C [48] 106% | viability, T/C [1] 122% | viability, T/C [2] 105% | viability, T/C [3] 90.4% | viability, T/C [4] 109% | viability, T/C [5] 114% | viability, T/C [6] 106% | viability, T/C [7] 102% | viability, T/C [8] 100% | viability, T/C [9] 86.7% | viability, T/C [10] 102% | viability, T/C [11] 98% | viability, T/C [12] 97% | viability, T/C [13] 91.9% | viability, T/C [14] 87.1% | viability, T/C [15] 99.8% | viability, T/C [16] 88.8% | viability, T/C [17] 90.4% | viability, T/C [18] 72.2% | viability, T/C [19] 92.9% | viability, T/C [20] 74% | viability, T/C [21] 79% | viability, T/C [22] 80.7% | viability, T/C [23] 83.8% | viability, T/C [24] 71.4%

C[C@@H](NC(=O)c1ncnc(N)c1Cl)c1ncc(C(=O)Nc2cc(C(F)(F)F)c(Cl)cn2)s1 + Cc1nc(NC(=O)N2CCCC2C(N)=O)sc1-c1ccnc(C(C)(C)C(F)(F)F)c1
inactive: viability, T/C [1] 110% | viability, T/C [2] 106% | viability, T/C [3] 110% | viability, T/C [4] 116% | viability, T/C [5] 97.5% | viability, T/C [6] 82.8% | viability, T/C [7] 103% | viability, T/C [8] 107% | viability, T/C [9] 113% | viability, T/C [10] 111% | viability, T/C [11] 88.7% | viability, T/C [12] 72.5% | viability, T/C [13] 106% | viability, T/C [14] 96.4% | viability, T/C [15] 106% | viability, T/C [16] 95.7% | viability, T/C [17] 74.6% | viability, T/C [18] 57.5% | viability, T/C [19] 93.7% | viability, T/C [20] 93.2% | viability, T/C [21] 99.2% | viability, T/C [22] 81.1% | viability, T/C [23] 71.2% | viability, T/C [24] 49.5% | viability, T/C [25] 83.6% | viability, T/C [26] 91.8% | viability, T/C [27] 83.3% | viability, T/C [28] 79.8% | viability, T/C [29] 62.6% | viability, T/C [30] 35% | viability, T/C [31] 72.2% | viability, T/C [32] 63.3% | viability, T/C [33] 63.8% | viability, T/C [34] 52% | viability, T/C [35] 41.9% | viability, T/C [36] 16.9%
> 10 µM: IC50 (second compound 0.0316 µM) | IC50 (second compound 0.1 µM) | IC50 (second compound 0.316 µM)
9.87 µM: IC50 (second compound 1 µM)
5.35 µM: IC50 (second compound 3.16 µM)
1.39 µM: IC50 (second compound 10 µM)

C#Cc1c(F)ccc2cc(O)cc(-c3ncc4c(N5CC6CCC(C5)N6)nc(OCC56CCCN5CC(F)C6)nc4c3F)c12 (stereo not drawn) + COc1c(OCCCN2CCOCC2)ccc2c3n(c(=NC(=O)c4cnc(N)nc4)nc12)CCN3
0.384 µM: IC50 (second compound 0.00316 µM)
< 0.0316 µM: IC50 (second compound 0.316 µM) | IC50 (second compound 1 µM)
active: viability, T/C [12] 6.82% | viability, T/C [17] 7.67% | viability, T/C [18] 4.44% | viability, T/C [22] 8.76% | viability, T/C [23] 5.6% | viability, T/C [24] 3.48%
0.0378 µM: IC50 (second compound 0.1 µM)
0.0932 µM: IC50 (second compound 0.0316 µM)
inactive: viability, T/C [37] 78.6% | viability, T/C [38] 67.9% | viability, T/C [39] 51.9% | viability, T/C [40] 38% | viability, T/C [41] 24.8% | viability, T/C [42] 17.2% | viability, T/C [43] 84.7% | viability, T/C [44] 70.5% | viability, T/C [45] 39.2% | viability, T/C [46] 32.4% | viability, T/C [47] 21.2% | viability, T/C [48] 15.9% | viability, T/C [1] 62.3% | viability, T/C [2] 52.1% | viability, T/C [3] 30.2% | viability, T/C [4] 23.8% | viability, T/C [5] 21.4% | viability, T/C [6] 11% | viability, T/C [7] 54% | viability, T/C [8] 34.4% | viability, T/C [9] 25.5% | viability, T/C [10] 19% | viability, T/C [11] 13.3% | viability, T/C [13] 36.4% | viability, T/C [14] 26.7% | viability, T/C [15] 17.1% | viability, T/C [16] 10.5% | viability, T/C [19] 24.3% | viability, T/C [20] 20.9% | viability, T/C [21] 11.7%
0.238 µM: IC50 (second compound 0.01 µM)
